Patent US12440576B2, “Antibody drug conjugates comprising sting agonists” (Mersana Therapeutics, Inc., priority 2020, dated 2025)
Like-named read-outs stand apart in the source and are kept apart here.

How the values were obtained:
SKBR3 NucRed cells = experiment: Cancer cell killing activity in SKBR3 NucRed/PBMC or primary human monocyte co-cultures (Example 33); type: cell-based
Procedure: 20,000 cells (per well) SKBR3 NucRed cells were seeded in 96-well tissue culture plates and allowed to attach 6 hours in 50 μL of RPMI-1640 medium with 10% FBS and 1% penicillin/streptomycin.

[1] = system: Type III Interferons IFNλ1/IFNλ3 (IL29/IL28b); experiment: IFNλ1/IFNλ3 (IL29/IL28b) production, STING knock out SKBR3/PBMC co-cultures (Example 42); type: cell-based, human
Procedure: (§1) Type III IFN induction: Co-cultures of SKBR3 cells and PBMCs were setup as described above to analyze the induction of Type III Interferons in supernatants 24 hours post treatment using a human IL29/IL28b ELISA kit.

[2] = system: STING pathway in THP1-Dual cells co-cultured with OVCAR3 cancer cells; experiment: Cancer cell/THP1-IRF3-Luciferase reporter cell co-culture assay, OVCAR3 (Example 26A); type: cell-based; conditions: Homo sapiens, OVCAR-3, 20 h
Procedure: Induction of STING pathway in immune cells: The induction of STING pathway in immune cells by NaPi2b-targeted STING ADC was evaluated by a cancer cell/THP1-IRF3-Luciferase reporter cell co-culture assay. OVCAR3 human ovarian carcinoma cells were seeded in 96-well CellBind surface tissue culture plates (15,000/well) and allowed to attach for 6 hours in RPMI-1640 medium with 10% FBS and 1% penicillin/streptomycin. […] THP1-dual reporter cells (30,000) were then added to each well and the incubation continued for 20 hours at 37° C. in a humidified atmosphere of 5% CO2. Cell culture supernatants (20 μl) from each incubated sample was added to resuspended QUANTI-Luc (50 l) and the luminescent signal was measured immediately using a SpectraMax M5 plate reader (Molecular Devices). The EC50 value was determined from the dose response curve.

[3] = system: STING wild type (sgNT-2) SKBR3 cells; experiment: PBMC killing assay, STING wild type SKBR3 NucRed cells (Examples 30, 30A); type: cell-based, human; conditions: 100, 25, 5 and 1 nM payload
CXCL10 induction [4] = experiment: CXCL10 induction in SKBR3 cancer cell/PBMC and monocyte co-cultures (Example 33); type: cell-based; conditions: Homo sapiens
[5] = system: CXCL10 produced by the SKOV3 cancer cell monocultures; experiment: CXCL10 ELISA of SKOV3 monocultures with conditioned media from immune cells (Example 36); type: cell-based, human; conditions: 24 hours
Procedure: Conditioned media was prepared by culturing 1.5×10^6/mL PBMCs (two different donors), 1×10^6/mL primary monocytes (isolated from PBMCs from two different donors, as described in Example 29), or 1×10^6/mL THP1 cells in RPMI-1640 medium with 10% FBS and 1% penicillin/streptomycin for 24 hours at 37° C., 5% O2, in an incubator. The supernatants were collected and spun down at 2000 rpm for 10 min to remove any cells. SKOV3 cells were seeded in 96 well plates (30,000/well) and allowed to attach overnight in RPMI-1640 medium with 10% FBS and 1% penicillin/streptomycin. […] After incubation for 24 hours at 37° C., 5% O2 supernatants from the 96 well plates were analyzed for CXCL10 production using a human CXCL10 ELISA kit.

[6] = system: THP1-Dual cells cultured on Her2 recombinant protein coated plates; experiment: THP1 luciferase reporter cells on Her2 protein coated plates (Example 27B); type: cell-based; conditions: Homo sapiens
Procedure: The wells were then washed 1× with PBS-T and blocked by incubation with BSA (3% in PBS-T) for 1 hour at room temperature. […] THP1-dual reporter cells (50,000) were added into each well and incubated for 20 hours at 37° C. in a humidified atmosphere of 5% CO2. Cell culture supernatants (20 μl) from each incubated sample was added to resuspended QUANTI-Luc (50 μl) and the luminescent signal was measured immediately using a SpectraMax M5 plate reader (Molecular Devices). The EC50 value was determined from the dose response curve.

[7] = system: Type III Interferons IFNλ1/IFNλ3 (IL29/IL28b); experiment: IFNλ1/IFNλ3 (IL29/IL28b) production, STING wild type SKBR3/PBMC co-cultures (Example 42); type: cell-based, human
Procedure: as §1

[8] = system: OVCAR3-NucRed cancer cells; experiment: OVCAR3-NucRed co-cultures with PBMCs, enriched monocytes or CD16-depleted monocytes (Example 31); type: cell-based, human; conditions: 20 and 4 nM payload
From the text: Frozen human PBMCs (1×10^8) were thawed and aliquoted into three tubes: one aliquot was subjected to human monocyte enrichment [StemCell Technologies] (“CD16 depleted monocytes”), one aliquot was subjected to human monocyte enrichment without CD16 depletion [StemCell Technologies] (“enriched monocytes”), and one aliquot was not subjected to enrichment (“PBMCs”). For flow cytometry, cells (50,000) from each group were transferred to a U-bottom 96-well plate in 4-replicates, washed with PBS and stained with live/dead fixable Aqua dead cell staining dye (Molecular Probes) followed by staining with fluorophore conjugated target specific (triplicates) or isotype control antibodies (Pacific Blue anti-human CD14, FITC anti-human CD3, APC/Cy7 CD16, PE anti-human CD32, PE/Cy7 anti-human CD64). Cells were fixed and surface expression of the proteins of interest was determined by flow cytometry analysis on a MACSQuant flow cytometer. Data analysis was performed by FlowJo software. Table 3 provides the frequency (% of single/live cells)) of CD14−/CD16+, CD14+/CD16+, CD14−/CD32+, CD14+/CD32+, CD14−/CD64+, CD14+/CD64+, and CD14−/CD3+ cells in PBMCs, enriched monocytes, and CD16-depleted monocyte populations
OVCAR3-NucRed cells (generated as described in Example 28) were seeded (15,000/well) in 96-well CellBind surface tissue culture plates (Corning) and allowed to attach for 6 hours in RPMI-1640 medium with 10% FBS and 1% penicillin/streptomycin. Culture medium was replaced with fresh media (50 μL). […] PBMCs, enriched monocytes, and CD16-depleted monocytes were prepared as described in Example 29. Live PBMCs (30,000/well), enriched monocytes (20,000/well), and CD16-depleted monocytes (20,000/well) were then added to the wells in culture medium (50 μL) and the plate was placed in an IncuCyte© live cell imaging instrument in an incubator (37° C., 5% 02) and scanned every 4 hours over 2 days. The number of red objects (cancer cells) were quantified using the IncuCyte© Zoom software. Red object confluency in each well was normalized to its own T=0 time point red object confluency.

[9] = system: THP1-Dual cells cultured on NaPi2b recombinant peptide coated plates; experiment: THP1 luciferase reporter cells on NaPi2b peptide coated plates (Example 27A); type: cell-based; conditions: Homo sapiens, 20 h
Procedure: Human NaPi2b-derived peptide ([sequence]) was coated onto the surface of each well of a 96-well plate by incubation with the peptide (1p g/mL in PBS), overnight at 4° C. The wells were then washed 1× with PBS-T and blocked by incubation with BSA (3% in PBS-T) for 1 hour at room temperature. […] THP1-dual reporter cells (50,000) were added into each well and incubated for 20 hours at 37° C. in a humidified atmosphere of 5% CO2. Cell culture supernatants (20 μl) from each incubated sample was added to resuspended QUANTI-Luc (50 μl) and the luminescent signal was measured immediately using a SpectraMax M5 plate reader (Molecular Devices). The EC50 value was determined from the dose response curve.

[10] = system: STING pathway in THP1-Dual cells co-cultured with SKBR3 cancer cells; experiment: Cancer cell/THP1-IRF3-Luciferase reporter cell co-culture assay, SKBR3 (Example 26B); type: cell-based; conditions: Homo sapiens, SK-BR-3
[11] = system: IL29/IL28b induction (IFNλ1/λ3); experiment: Type III IFN induction, human IL29/IL28b ELISA, SKBR3/PBMC co-cultures (Example 33); type: cell-based; conditions: SK-BR-3, SKBR3/PBMC co-culture, supernatants 24 hours post treatment
Procedure: as §1

CXCL10 induction [12] = experiment: CXCL10 induction in Calu3 cancer cell/PBMC co-cultures (Example 35); type: cell-based; conditions: Homo sapiens, Calu-3, read-out: EC50 - PBMC (CXCL10 induction)
Procedure: CXCL10 induction: Calu3 human lung adenocarcinoma cells were seeded in 96-well tissue culture plates and allowed to attach overnight at 37° C., 5% CO2 in 100 μL of EMEM medium with 10% FBS and 1% penicillin/streptomycin. Culture medium was replaced with fresh media (100 μL).

[13] = system: STING pathway in THP1-Dual cells co-cultured with SKOV3 cancer cells; experiment: Cancer cell/THP1-IRF3-Luciferase reporter cell co-culture assay, SKOV3 (Example 34); type: cell-based; conditions: Homo sapiens, SK-OV-3, 20 h
Procedure: The induction of STING pathway in immune cells by Her2-targeted STING ADC was evaluated by a cancer cell/THP1-IRF3-Luciferase reporter cell co-culture assay. SKOV3 human ovarian adenocarcinoma cells were seeded in 96-well CellBind surface tissue culture plates (20,000/well) and allowed to attach for 6 hours in McCoy's 5a medium with 10% FBS and 1% penicillin/streptomycin. […] 50,000 THP1-dual reporter cells were then added to each well and the incubation continued for 20 hours at 37° C. in a humidified atmosphere of 5% CO2. Cell culture supernatants (20 μL) from each incubated sample was added to resuspended QUANTI-Luc (50 μL) and the luminescent signal for IRF3 was measured immediately using a SpectraMax M5 plate reader (Molecular Devices). The EC50 value was determined from the dose response curve.

[14] = system: SKOV3 human ovarian cancer cells; experiment: SKOV3 xenograft, Fc mutant HER2 ADCs (Example 54); type: in vivo, mouse; conditions: iv day 1, n=10: Conjugate 8j 2.71/0.10, diABZI IV STING agonist 0/5 mg/kg
Procedure: Tumors were measured twice weekly using digital calipers and tumor volumes were calculated using the formula: tumor volume (mm^3)=(width^2×length)/2. Body weights were recorded daily for the first week and twice weekly thereafter. Animals remained on study until individual tumor volume reached ≥1000 mm^3≥1500 mm^3 or as indicated. Percent change in body weight was calculated using the formula: body weight change (%)=((weight^study day X−weight^study day 1)/weight^study day 1)*100. Tumor volumes are reported as mean±standard error of the mean (SEM). Tumor growth inhibition (% TGI) was defined as the percent difference in mean tumor volumes (MTVs) between treated and control groups. Tumor size was measured throughout each efficacy study to determine tumor growth inhibition (TGI). Percent tumor regression was calculated using the formula: % regression=(1−(mean tumor volume^final)/(mean tumor volume^day 1))*100. A partial response (PR) is defined as a tumor volume of 50% or less for day 1 volume for three consecutive measurements and equal to or greater than 13.5 mm^3 for at least one of these three measurements. A complete response (CR) is defined as a tumor volume less than 13.5 mm^3 for three consecutive measurements. A tumor-free survivor (TFS) is classified as having a CR at the end of study. […]

OVCAR3-NucRed cells = experiment: OVCAR3-NucRed/PBMC co-culture killing assay (Example 28B); type: cell-based, human
Procedure: OVCAR3 human ovarian carcinoma cells stably expressing nuclear restricted mKate fluorescent red protein were generated by transduction with IncuCyte© NucLight Red Lentivirus reagent. Stably transduced cells (designated as OVCAR3-NucRed cells) selected in puromycin-containing media (2 μg/mL) for two days, were seeded in 96-well tissue culture plates (8,000/well) and allowed to attach overnight in RPMI-1640 medium with 10% FBS and 1% penicillin/streptomycin. Culture medium was replaced with fresh media (50 μL). […] Frozen human peripheral blood mononuclear cells (PBMCs) were thawed according to the supplier's instructions and were added to each well (40,000 PBMCs in 50 μL media) and the plate was placed in an IncuCyte© live cell imaging instrument in an incubator (37° C., 5% 02) and scanned every 4 hours over 2 days. The number of red objects (cancer cells) were quantified using the IncuCyte© Zoom software. Red object confluency in each well was normalized to its own T=0 time point red object confluency.
OVCAR3-NucRed cells were seeded in 96-well tissue culture plates (20,000/well) and allowed to attach 6 hours in RPMI-1640 medium with 10% FBS and 1% penicillin/streptomycin. Culture medium was replaced with fresh media (50 μL). […] The number of red objects (cancer cells) were quantified using the IncuCyte© Zoom software. […]

Q: For `CCn1nc(C)cc1C(=O)Nc1nc2cc(C(N)=O)cc(OC)c2n1C/C=C/Cn1c(NC(=O)c2cc(C)nn2CC)nc2cc(C(N)=O)cc(OCCCO)c21` [Compound 1], which IC50 (SKBR3 NucRed cells; SK-BR-3, read-out: IC50 - Monocyte (killing activity)) is on record?
A: Its IC50 is 8.32 nM.

Q: What about the IC50 (SKBR3 NucRed cells; SK-BR-3, read-out: IC50 - PBMC (killing activity)) of the same molecule?
A: The IC50 was 9.51 nM.

Q: And the “Bmax (IL29/IL28b production)” value ([1]; STING knock out (sgRNA#3) SKBR3/PBMC)?
A: Its value is 0 OD450.

Q: And the “Bmax (IL29/IL28b production)” value ([1]; STING knock out (sgRNA#4) SKBR3/PBMC)?
A: Its value is 0 OD450.

Q: And the EC50 [2]?
A: Its EC50 is 6.8 nM.

Q: And the “killing of SKBR3 cells/PBMC co-cultures (FIG. 3A)” value [3]?
A: Its value is “showed activity in STING wild type (sgNT-2) SKBR3 cells/PBMC co-cultures at 100 nM only”.

Q: What about the EC50 (CXCL10 induction [4]; Monocyte, read-out: EC50 - Monocyte (CXCL10 induction)) of the same molecule?
A: The EC50 was 31.1 nM.

Q: And the EC50 (CXCL10 induction [4]; SK-BR-3, read-out: EC50 - PBMC (CXCL10 induction))?
A: The EC50 was 26.1 nM.

Q: And the “O.D. 450 + 100 nM Compound 1 (CXCL10)” value ([5]; Conditioned Media: Monocyte (Donor1))?
A: Its value is 1.62 +/− 0.050 O.D. 450.

Q: And the “O.D. 450 + 100 nM Compound 1 (CXCL10)” value ([5]; Conditioned Media: Monocyte (Donor2))?
A: Its value is 0.97 +/− 0.142 O.D. 450.

Q: And the “O.D. 450 + 100 nM Compound 1 (CXCL10)” value ([5]; Conditioned Media: None)?
A: Its value is 0.16 +/− 0.038 O.D. 450.

Q: And the “O.D. 450 + 100 nM Compound 1 (CXCL10)” value ([5]; Conditioned Media: PBMC (Donor1))?
A: Its value is 2.22 +/− 0.084 O.D. 450.

Q: What about the “O.D. 450 + 100 nM Compound 1 (CXCL10)” value ([5]; Conditioned Media: PBMC (Donor2)) of the same molecule?
A: Its value is 0.83 +/− 0.086 O.D. 450.

Q: And the “O.D. 450 + 100 nM Compound 1 (CXCL10)” value ([5]; Conditioned Media: THP1)?
A: The value was 0.18 +/− 0.043 O.D. 450.

Q: And the EC50 [6]?
A: The EC50 was 8.8 nM.

Q: What about the EC50 ([7]; Homo sapiens, SK-BR-3, read-out: EC50 (IL29/IL28b production)) of the same molecule?
A: Its EC50 is 49.3 nM.

Q: And the “Bmax (IL29/IL28b production)” value ([7]; STING wild type SKBR3/PBMC)?
A: Its value is 0.5 OD450.

Q: And the “killing of OVCAR3-NucRed cancer cells by CD16 depleted monocytes (FIG. 5C)” value [8]?
A: Its value is “induced cancer cell killing”.

Q: What about the “killing of OVCAR3-NucRed cancer cells by PBMCs (FIG. 5A)” value [8] of the same molecule?
A: The value was “only in enriched monocyte and CD16-depleted monocyte co-cultures”.

Q: And the “killing of OVCAR3-NucRed cancer cells by enriched monocytes (FIG. 5B)” value [8]?
A: Its value is “induced cancer cell killing”.

Q: What about the EC50 [9] of the same molecule?
A: The EC50 was 5.18 nM.

Q: What about the EC50 [10] of the same molecule?
A: Its EC50 is 7.4 nM.

Q: What about the EC50 [11] of the same molecule?
A: Its EC50 is 28.3 nM.

Q: `CCc1nc(C)oc1C(=O)Nc1nc2cc(C(N)=O)cnc2n1C/C=C/Cn1c(NC(=O)c2oc(C)nc2CC)nc2cc(C(N)=O)cc(OCCCO)c21` [Compound 30] was tested. Which EC50 (CXCL10 induction [12]) did it give?
A: Its EC50 is 160 nM.

Q: What about the EC50 [13] of the same molecule?
A: Its EC50 is 38.5 nM.

Q: With diABZI IV STING agonist as the molecule, how does the “PR (partial responses)” value [14] read?
A: The value was 7.

B1: Conjugate 81: "XMT-1535 was used instead of XMT-1519 and 2-(2-(2-(2-aminoethoxy)ethoxy)ethoxy)acetic acid was incorporated" instead of (3-(2-(2-aminoethoxy)ethoxy)propanoyl)-L-alanine (conjugate, chains of the INN, looked up)
VH: QVQLVQSGAEVVKPGASVKMSCKASGYTFTGYNIHWVKQAPGQGLEWIGAIYPGNGDTSYKQKFRGRATLTADTSTSTVYMELSSLRSEDSAVYYCARGETARATFAYWGQGTLVTVSS
VL: DIQMTQSPSSLSASVGDRVTITCSASQDIGNFLNWYQQKPGKTVKVLIYYTSSLYSGVPSRFSGSGSGTDYTLTISSLQPEDFATYYCQQYSKLPLTFGQGTKLELK
modifications: drug-linker conjugate with PEG linker
Q: With B1 as the molecule, how does the “lower payload concentration compared to Compound 1 for induction of cancer cell killing” value (OVCAR3-NucRed cells) read?
A: Its value is 100 ×.

Q: And the “cancer cell killing by PBMCs (red object numbers, FIG. 1B)” value (OVCAR3-NucRed cells; 1-100 nM payload)?
A: The value was “robust induction of cancer cell killing”.
